Data on six compounds can be found in ChEMBL document CHEMBL5131536, “Novel Quinoline Compounds as EZH2 Inhibitors for Treating Cancer” (ACS Med Chem Lett, 2022).

Molecules are shown by their SMILES.

Chain of Histone-lysine N-methyltransferase EZH2 (Q15910 whole entry): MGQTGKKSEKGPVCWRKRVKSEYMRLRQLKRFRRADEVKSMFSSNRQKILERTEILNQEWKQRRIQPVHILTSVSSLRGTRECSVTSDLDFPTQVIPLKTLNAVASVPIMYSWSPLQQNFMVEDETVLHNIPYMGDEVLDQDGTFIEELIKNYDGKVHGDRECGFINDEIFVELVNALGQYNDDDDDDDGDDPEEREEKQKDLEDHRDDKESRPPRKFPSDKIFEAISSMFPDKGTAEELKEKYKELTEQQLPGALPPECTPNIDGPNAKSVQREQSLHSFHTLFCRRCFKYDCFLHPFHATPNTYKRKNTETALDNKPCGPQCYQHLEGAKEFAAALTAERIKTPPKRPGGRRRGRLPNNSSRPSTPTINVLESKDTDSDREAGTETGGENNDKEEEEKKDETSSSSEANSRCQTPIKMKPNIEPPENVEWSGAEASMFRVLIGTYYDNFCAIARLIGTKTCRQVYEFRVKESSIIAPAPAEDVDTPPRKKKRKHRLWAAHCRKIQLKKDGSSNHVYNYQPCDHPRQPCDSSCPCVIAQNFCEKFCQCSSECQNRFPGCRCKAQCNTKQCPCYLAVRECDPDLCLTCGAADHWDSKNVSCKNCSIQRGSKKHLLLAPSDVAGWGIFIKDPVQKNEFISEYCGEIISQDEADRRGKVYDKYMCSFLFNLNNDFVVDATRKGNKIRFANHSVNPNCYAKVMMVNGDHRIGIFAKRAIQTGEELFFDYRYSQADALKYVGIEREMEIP

The assay concerns the target Histone-lysine N-methyltransferase EZH2 (Homo sapiens, UniProt Q15910). Description: Inhibition of EZH2 in human G-401 cells assessed as reduction in H3K27 methylation incubated for 48 hrs by ELISA. The class given is cell-based.
With `Cc1ccc2ccc(N[C@H]3CC[C@H](CNc4ccc(CC(=O)NC5COC5)cn4)CC3)nc2c1Cl`, the IC50 was below 0.01 µM.

In the case of `Cc1ccc2ccc(N[C@H]3CC[C@H](CNc4ncc(C(O)C(=O)NC5COC5)cn4)CC3)nc2c1Cl` (stereo partly specified), the IC50 is below 0.01 µM.

As for `Cc1ccc2ccc(N[C@H]3CC[C@H](CNc4ncc(C(F)(F)C(=O)NC5COC5)cn4)CC3)nc2c1Cl`, the IC50 was below 0.01 µM.

For `Cc1ccc2ccc(N[C@H]3CC[C@H](CNc4ncc(CC(=O)NC5COC5)cn4)CC3)nc2c1Cl`, the IC50 was below 0.01 µM.

With `Cc1ccc2ccc(N[C@H]3CC[C@H](CNc4ncc(C(CO)C(=O)NC5COC5)cn4)CC3)nc2c1Cl` (stereo partly specified), the IC50 was below 0.01 µM.

For the compound `Cc1ccc2ccc(N[C@H]3CC[C@H](CNc4ncc(C(C#N)C(=O)NC5COC5)cn4)CC3)nc2c1Cl` (stereo partly specified), the 50% inhibitory concentration (IC50) was below 0.01 µM.
